# Test system: STAT3 phosphorylation in NCI-H1975 cells
# Assay: Cellular pSTAT3 assay in NCI-H1975 cells
# Assay type: cell-based
# Settings: Homo sapiens, 2 hours with compound
# Procedure: NCI-H1975 cells were plated onto Costar #3701 96 or 384 well tissue-culture treated plates at 5,000 cells/well in 30 uL medium (RPMI, 10% FBS, supplemented with L-glutamine) and incubated overnight at 37° C. in 5% CO2. Phospho STAT3 signal was quantitated utilizing Cell Signaling Technology #7146B Pathscan […] STAT3 antibody pair kit, following manufacturer's instructions.
# Cells were dosed with compound and incubated at 37° C. in 5% CO2 for 2 hours, after which medium and compound were aspirated and cells lysed with 35 uL cold 1×Cell Signaling Lysis buffer and chilled at 4° C. for 1-2 hours. Lysate was incubated on STAT3 capture plates at 4° C. overnight, washed 3× with Tris-Buffered Saline with 0.05% Tween® 20 (TBST), then […] STAT3 detection antibody was applied for 2 hours. Following washing with TBST (3×), HRP-secondary antibody was applied for 2 hours. After additional washing, signal was detected using TMB and Stop solution and read at 450 nm using Tecan Infinite M100.
row,SMILES,IC50 [nM]
1,"CCOc1nn(C)cc1Nc1ncc(C)c(-c2c[nH]c3c(NC(=O)[C@@H](C)N4CCN(C)CC4)cccc23)n1 [Example 35, (2R)-N-(3-{2-[(3-ethoxy-1-methyl-1H-pyrazol-4-yl)amino]-5-methylpyrimidin-4-yl}-1H-indol-7-yl)-2-(4-methylpiperazin-1-yl)propanamide]",153
2,"COc1nn(C)cc1Nc1ncc(C)c(-c2c[nH]c3c(NC(=O)[C@@H](C)N4CCN(C)C[C@H]4C)cccc23)n1 [Example 38, (2R)-2-[(2R)-2,4-dimethylpiperazin-1-yl]-N-(3-{2-[(3-methoxy-1-methyl-1H-pyrazol-4-yl)amino]-5-methylpyrimidin-4-yl}-1H-indol-7-yl)propanamide]",108
3,"CCOc1nn(C)cc1Nc1ncc(Cl)c(-c2c[nH]c3c(NC(=O)[C@@H](C)N4CCN(C)CC4)cccc23)n1 [Example 40, (2R)-N-(3-{5-chloro-2-[(3-ethoxy-1-methyl-1H-pyrazol-4-yl)amino]pyrimidin-4-yl}-1H-indol-7-yl)-2-(4-methylpiperazin-1-yl)propanamide]",160
4,"Cc1cnc(Nc2cn(C)nc2C)nc1-c1c[nH]c2c(NC(=O)[C@@H](C)N3CCN(C)CC3)cccc12 [Example 41, (2R)-N-(3-{2-[(1,3-dimethyl-1H-pyrazol-4-yl)amino]-5-methylpyrimidin-4-yl}-1H-indol-7-yl)-2-(4-methylpiperazin-1-yl)propanamide]",92.3
5,"Cc1cnc(Nc2cn(C)nc2C)nc1-c1c[nH]c2c(NC(=O)[C@H](C)N3CCN(C)CC3)cccc12 [Example 42, (2S)-N-(3-{2-[(1,3-dimethyl-1H-pyrazol-4-yl)amino]-5-methylpyrimidin-4-yl}-1H-indol-7-yl)-2-(4-methylpiperazin-1-yl)propanamide]",172
6,"CCc1nn(C)cc1Nc1ncc(C)c(-c2c[nH]c3c(NC(=O)[C@@H](C)N4CCN(C)CC4)cccc23)n1 [Example 55, (2R)-N-(3-{2-[(3-ethyl-1-methyl-1H-pyrazol-4-yl)amino]-5-methylpyrimidin-4-yl}-1H-indol-7-yl)-2-(4-methylpiperazin-1-yl)propanamide]",116
7,"Cc1nn(C)cc1Nc1ncc(F)c(-c2c[nH]c3c(NC(=O)[C@@H](C)N4CCN(C)CC4)cccc23)n1 [Example 56, (2R)-N-(3-{2-[(1,3-dimethyl-1H-pyrazol-4-yl)amino]-5-fluoropyrimidin-4-yl}-1H-indol-7-yl)-2-(4-methylpiperaizn-1-yl)propanamide]",126
8,"Cc1nn(C)cc1Nc1nccc(-c2c[nH]c3c(NC(=O)[C@@H](C)N4CCN(C)CC4)cccc23)n1 [Example 57, (2R)-N-(3-{2-[(1,3-dimethyl-1H-pyrazol-4-yl)amino]pyrimidin-4-yl}-1H-indol-7-yl)-2-(4-methylpiperaizn-1-yl)propanamide]",155
9,"CCn1cc(Nc2ncc(C)c(-c3c[nH]c4c(NC(=O)[C@@H](C)N5CCN(C)CC5)cccc34)n2)c(OC)n1 [Example 58, (2R)-N-(3-{2-[(1-ethyl-3-methoxy-1H-pyrazol-4-yl)amino]-5-methylpyrimidin-4-yl}-1H-indol-7-yl)-2-(4-methylpiperazin-1-yl)propanamide]",106
10,"CCOc1nn(CC)cc1Nc1ncc(C)c(-c2c[nH]c3c(NC(=O)[C@@H](C)N4CCN(C)CC4)cccc23)n1 [Example 59, (2R)-N-(3-{2-[(3-ethoxy-1-ethyl-1H-pyrazol-4-yl)amino]-5-methylpyrimidin-4-yl}-1H-indol-7-yl)-2-(4-methylpiperazin-1-yl)propanamide]",245
11,"COC[C@H](C(=O)Nc1cccc2c(-c3ccnc(Nc4cn(C)nc4OC)n3)c[nH]c12)N1CCN(C)CC1 [Example 60, (2R)-3-Methoxy-N-(3-{2-[(3-methoxy-1-methyl-1H-pyrazol-4-yl)amino]pyrimidin-4-yl}-1H-indol-7-yl)-2-(4-methylpiperazin-1-yl)propanamide]",97.3
12,"COC[C@@H](C(=O)Nc1cccc2c(-c3ccnc(Nc4cn(C)nc4OC)n3)c[nH]c12)N1CCN(C)CC1 [Example 61, (2S)-3-Methoxy-N-(3-{2-[(3-methoxy-1-methyl-1H-pyrazol-4-yl)amino]pyrimidin-4-yl}-1H-indol-7-yl}-2-(4-methylpiperazin-1-yl)propanamide]",1270

# Further lines, results first:
row,IC50 [nM],SMILES
1,57.9,"COc1nn(C)cc1Nc1ncc(Cl)c(-c2c[nH]c3c(NC(=O)[C@@H](C)N4CCN(C)CC4)cccc23)n1 [Example 36, (2R)-N-(3-{5-chloro-2-[(3-methoxy-1-methyl-1H-pyrazol-4-yl)amino]pyrimidin-4-yl}-1H-indol-7-yl)-2-(4-methylpiperazin-1-yl)propanamide]"
2,94.2,"COc1nn(C)cc1Nc1ncc(Br)c(-c2c[nH]c3c(NC(=O)[C@@H](C)N4CCN(C)CC4)cccc23)n1 [Example 37, (2R)-N-(3-{5-bromo-2-[(3-methoxy-1-methyl-1H-pyrazol-4-yl)amino]pyrimidin-4-yl}-1H-indol-7-yl)-2-(4-methylpiperazin-1-yl)propanamide]"
3,191,"CCOc1nn(C)cc1Nc1ncc(F)c(-c2c[nH]c3c(NC(=O)[C@@H](C)N4CCN(C)CC4)cccc23)n1 [Example 39, (2R)-N-(3-{2-[(3-ethoxy-1-methyl-1H-pyrazol-4-yl)amino]-5-fluoropyrimidin-4-yl}-1H-indol-7-yl)-2-(4-methylpiperazin-1-yl)propanamide]"
4,176,"CC[C@@H](C(=O)Nc1cccc2c(-c3nc(Nc4cn(C)nc4OC)ncc3C)c[nH]c12)N1CCN(C)CC1 [Example 43, (2S)-N-(3-{2-[(3-Methoxy-1-methyl-1H-pyrazol-4-yl)amino]-5-methylpyrimidin-4-yl}-1H-indol-7-yl)-2-(4-methylpiperazin-1-yl)butanamide]"
5,57.7,"CC[C@H](C(=O)Nc1cccc2c(-c3nc(Nc4cn(C)nc4OC)ncc3C)c[nH]c12)N1CCN(C)CC1 [Example 44, (2R)-N-(3-{2-[(3-Methoxy-1-methyl-1H-pyrazol-4-yl)amino]-5-methylpyrimidin-4-yl}-1H-indol-7-yl)-2-(4-methylpiperazin-1-yl)butanamide]"
6,60.3,"COC[C@H](C(=O)Nc1cccc2c(-c3nc(Nc4cn(C)nc4OC)ncc3C)c[nH]c12)N1CCN(C)CC1 [Example 45, (2R)-3-methoxy-N-(3-{2-[(3-methoxy-1-methyl-1H-pyrazol-4-yl)amino]-5-methylpyrimidin-4-yl}-1H-indol-7-yl)-2-(4-methylpiperazin-1-yl)propanamide]"
7,1280,"COC[C@@H](C(=O)Nc1cccc2c(-c3nc(Nc4cn(C)nc4OC)ncc3C)c[nH]c12)N1CCN(C)CC1 [Example 46, (2S)-3-methoxy-N-(3-{2-[(3-methoxy-1-methyl-1H-pyrazol-4-yl)amino]-5-methylpyrimidin-4-yl}-1H-indol-7-yl)-2-(4-methylpiperazin-1-yl)propanamide]"
8,136,"CC[C@H](C(=O)Nc1cccc2c(-c3ccnc(Nc4cn(C)nc4OC)n3)c[nH]c12)N1CCN(C)CC1 [Example 47, (2R)-N-(3-{2-[(3-Methoxy-1-methyl-1H-pyrazol-4-yl)amino]pyrimidin-4-yl}-1H-indol-7-yl)-2-(4-methylpiperazin-1-yl)butanamide]"
9,863,"CC[C@@H](C(=O)Nc1cccc2c(-c3ccnc(Nc4cn(C)nc4OC)n3)c[nH]c12)N1CCN(C)CC1 [Example 48, (2S)-N-(3-{2-[(3-Methoxy-1-methyl-1H-pyrazol-4-yl)amino]pyrimidin-4-yl}-1H-indol-7-yl)-2-(4-methylpiperazin-1-yl)butanamide]"
10,75.1,"CC[C@H](C(=O)Nc1cccc2c(-c3nc(Nc4cn(C)nc4C)ncc3F)c[nH]c12)N1CCN(C)CC1 [Example 49, (2R)-N-(3-{2-[(1,3-dimethyl-1H-pyrazol-4-yl)amino]-5-fluoropyrimidin-4-yl}-1H-indol-7-yl)-2-(4-methylpiperazin-1-yl)butanamide]"
11,999,"CC[C@@H](C(=O)Nc1cccc2c(-c3nc(Nc4cn(C)nc4C)ncc3F)c[nH]c12)N1CCN(C)CC1 [Example 50, (2S)-N-{3-[2-[(1,3-dimethyl-1H-pyrazol-4-yl)amino]-5-fluoropyrimidin-4-yl}-1H-indol-7-yl)-2-(4-methylpiperazin-1-yl)butanamide]"
12,111,"CC[C@H](C(=O)Nc1cccc2c(-c3nc(Nc4cn(C)nc4OC)ncc3F)c[nH]c12)N1CCN(C)CC1 [Example 51, (2R)-N-(3-{5-fluoro-2-[(3-methoxy-1-methyl-1H-pyrazol-4-yl)amino]pyrimidin-4-yl}-1H-indol-7-yl)-2-(4-methylpiperazin-1-yl)butanamide]"
13,548,"CC[C@@H](C(=O)Nc1cccc2c(-c3nc(Nc4cn(C)nc4OC)ncc3F)c[nH]c12)N1CCN(C)CC1 [Example 52, (2S)-N-(3-{5-fluoro-2-[(3-methoxy-1-methyl-1H-pyrazol-4-yl)amino]pyrimidin-4-yl}-1H-indol-7-yl)-2-(4-methylpiperaizn-1-yl)butanamide]"
14,56.6,"COC[C@H](C(=O)Nc1cccc2c(-c3nc(Nc4cn(C)nc4C)ncc3F)c[nH]c12)N1CCN(C)CC1 [Example 53, (2R)-N-(3-{2-[(1,3-dimethyl-1H-pyrazol-4-yl)amino]-5-fluoropyrimidin-4-yl}-1H-indol-7-yl)-3-methoxy-2-(4-methylpiperazin-1-yl)propanamide]"
15,> 3000,"COC[C@@H](C(=O)Nc1cccc2c(-c3nc(Nc4cn(C)nc4C)ncc3F)c[nH]c12)N1CCN(C)CC1 [Example 54, (2S)-N-{3-[2-[(1,3-dimethyl-1H-pyrazol-4-yl)amino]-5-fluoropyrimidin-4-yl}-1H-indol-7-yl)-3-methoxy-2-(4-methylpiperazin-1-yl)propanamide]"

# Source: US10167276B2, “Compounds and methods for inhibiting JAK” (Dizal (Jiangsu) Pharmaceutical Co., Ltd., priority 2015, dated 2019)
